Measurements: patent publication USRE47493E1, “Substituted bicyclic dihydropyrimidinones and their use as inhibitors of neutrophil elastase activity” (Boehringer Ingelheim International GmbH, priority 2014, dated 2019)

Key:
Caco-2 cell monolayers = assay: Assay for Determination of Drug Transport Across Human CACO-2 Cells; format: in vitro ADME
From the text: Assay for Determination of Drug Transport Across Human CACO-2 Cells
The assay provides information on the potential of a compound to pass the cell membrane, on the extent of oral absorption as well as on whether the compound is actively transported by uptake and/or efflux transporters. For the measurement of permeability across polarized, confluent human cancer colon carcinoma cells 2 (Caco-2) cell monolayers grown on permeable filter supports are used as the in vitro absorption model. Apparent permeability coefficients (PE) of the compounds across the Caco-2 monolayers are measured (pH 7.2, 37° C.) in apical-to-basal (AB) (absorptive) and basal-to-apical (BA) (secretory) transport direction. AB permeability (PEAB) represents drug absorption from the intestine into the blood and BA permeability (PEBA) drug secretion from the blood back into the intestine via both passive permeability as well as active transport mechanisms mediated by efflux and uptake transporters that are expressed on the Caco-2 cells. The compounds are assigned to permeability/absorption classes by comparison of the AB permeabilities with the AB permeabilities of reference compounds with known in vitro permeability and oral absorption in the human. Identical or similar permeabilities in both transport directions indicate passive permeation, vectorial permeability points to additional active transport mechanisms. […] Active transport is concentration-dependently saturable.
Caco-2 cells (1−2*10^5 cells/cm^2 area) are seeded on filter inserts (Costar transwell polycarbonate or PET filters, […] pore size) and cultured (DMEM) for 10 to 25 days. Compounds are dissolved in appropriate solvent (like DMSO, 1-20 mM stock solutions). Stock solutions are diluted with HTP-4 buffer (128.13 mM NaCl, 5.36 mM KCl, 1 mM MgSO4, 1.8 mM CaCl2, 4.17 mM NaHCO3, 1.19 mM Na2HPO4×7H2O, 0.41 mM NaH2PO4×H2O, 15 mM HEPES, 20 mM glucose, pH 7.2) to prepare the transport solutions (typically […] compound, final DMSO <=0.5%). The transport solution (TL) is applied to the apical or basolateral donor side for measuring A-B or B-A permeability (3 filter replicates), respectively. The receiver side contains HTP-4 buffer supplemented with 2% BSA. Samples are collected at the start and end of experiment from the donor and at various time intervals for up to 2 hours also from the receiver side for concentration measurement by LC-MS/MS or scintillation counting. Sampled receiver volumes are is replaced with fresh receiver solution.
The apparent permeability coefficients (PEAB and PEBA) and efflux ratios (PEBA/PEAB) of selected compounds in the Caco-2 drug transport assay described above are listed in Table 17.

[1] = target: Human neutrophil elastase (Homo sapiens (Human), UniProt P08246); assay: Human Neutrophil Elastase Assay; format: biochemical; conditions: human neutrophil elastase, substrate MeOSuc-Ala-Ala-Pro-Val-AMC, pH 7.5; read-out: IC50
Protocol: Human Neutrophil Elastase Assay
Materials: Human neutrophil elastase was purchased from Calbiochem (Cat.No.: 324681) and the elastase substrate MeOSuc-Ala-Ala-Pro-Val-AMC from Bachem (Cat.No.: I-1270). All other materials were of the highest grade commercially available.
The following buffers were used: Compound buffer: 100 mM Tris, 500 mM NaCl, adjusted to pH 7.5; Assay buffer: 100 mM Tris, 500 mM NaCl, adjusted to pH 7.5, containing 0.01% BSA.
Assay conditions: Test compounds were prediluted in DMSO and subsequently in compound buffer (5% DMSO final). 5 μL of these compound dilutions were mixed with 10 μl Neutrophil elastase (9 ng/ml in assay buffer) in a black 384 well OptiPlate (Perkin Elmer, Cat No.: 6007270) and incubated for 15 min at room temperature. Subsequently 10 μL substrate solution in assay buffer were added (250 nM final concentration) and the plates were incubated for 60 min at room temperature. After inactivation of the enzyme, fluorescence intensities were measured at 380 nm excitation and 460 nm emission wavelengths.
Each plate contains wells with a high value control (DMSO+enzyme+substrate) and wells with a low value control (DMSO+inactivated enzyme+substrate). IC50 values were estimated using a sigmoidal concentration response curve with variable slope. Means of low values were taken as 0%, means of high values as 100%.

[2] = Assay for Determination of Aqueous Solubility; format: physicochemical; conditions: McIlvaine buffer pH 6.8, 2.5% DMSO, 24 h
Protocol: Assay for Determination of Aqueous Solubility
The aqueous solubility of a compound is determined by comparing the amount dissolved in aqueous buffer (containing 2.5% DMSO) to the amount dissolved in an acetonitrile/water (1/1) solution. Starting from a 10 mM DMSO stock solution, aliquots are diluted with acetonitrile/water (1/1) and Mcllvaine buffer pH 6.8, respectively. After 24 h of shaking, the solutions or suspensions are filtered and analyzed by LC-UV. The amount dissolved in buffer is compared to the amount dissolved in the acetonitrile/water (1/1) solution. Solubility is measured from 0.001 to 0.125 mg/ml at a DMSO concentration of 2.5%. If more than 90% of the compound is dissolved in buffer, the value is marked with “>”.

[3] = target: neutrophil elastase in human plasma (Homo sapiens (Human), UniProt P08246); assay: Assay for the Determination of Neutrophil Elastase Inhibitory Activity in Human Plasma; format: biochemical; conditions: neutrophil elastase enriched human plasma (zymosan-stimulated blood)
Protocol: Assay for the Determination of Neutrophil Elastase Inhibitory Activity in Human Plasma
Citrated blood from human healthy donors is mixed with zymosan suspension and incubated at room temperature. This leads to the stimulation of neutrophils and the release of neutrophil elastase into the plasma. The stimulated blood is centrifuged to generate the neutrophil elastase enriched plasma.
Preparation of Zymosan Working Solution:
• single 45 ml blood sample is taken into a 50 ml tube containing citrate (3.13%, 5 mL) and the tube is gently inverted 4 times. • Immediately after blood sampling, zymosan working solution (5 mL) is added. • After the addition of zymosan working solution, the tubes are capped, mixed gently and incubated at 22° C. for 15 min on a shaker at 20 rpm. • Make 10 ml aliquots after the incubation time. • Centrifuge the 15 ml tubes at 800 g for […] at 4° C. in a Jouan centrifuge. • Harvest the plasma and make 1-5 ml aliquots. • Store the plasma at −80° C.
Various concentrations of the neutrophil elastase inhibitor are incubated with plasma. Subsequently, the enzyme activity is measured using the fluorogenic substrate MeOSuc-Ala-Ala-Pro-Val-AMC (Bachem Cat. No. 1-1270, substrate concentration: 250 μM, pH 7.5, 25 mM TRIS buffer, 250 mM NaCl) in analogous fashion as described for the human neutrophil assay. A dose response curve is generated to calculate the EC50 of the inhibitor. The analysis of the data is performed by the calculation of the percentage of fluorescence in the presence of the test compound compared to the fluorescence of the vehicle control after subtracting the background fluorescence: An inhibitor of the neutrophil elastase enzyme will give values between 100% control (no inhibition) and 0% control (complete inhibition). The human plasma shift of selected compounds can be calculated using the following equation: Human plasma shift=(EC50 in human plasma assay)/(IC50 in human neutrophil elastase assay) The EC50 values of selected compounds in the human plasma assay described above are listed in Table 14.

[4] = Assay for the Determination of Metabolic Stability with Human Hepatocytes; format: in vitro ADME; conditions: scaled with well stirred model
Protocol: Assay for the Determination of Metabolic Stability with Human Hepatocytes
The metabolic degradation of the test compound is assayed in a human hepatocyte suspension. Human hepatocytes (typically cryopreserved) are incubated in an appropriate buffer system (e.g. Dulbecco's modified eagle medium plus 3.5 μg glucagon/500 mL, 2.5 mg insulin/500 mL and 3.75 mg/500 mL hydrocortison) containing 5% species serum. Following a (typically) […] preincubation in an incubator (37° C., 10% CO2), 5 μl of test compound solution (80 μM; from 2 mM stock solution in DMSO diluted 1:25 with medium) are added into 395 μl hepatocyte suspension (cell density in the range 0.25-5*10^6 cells/mL, typically 1*10^6 cells/mL; final concentration of test compound 1 μM, final DMSO concentration […]). The cells are incubated for six hours (incubator, orbital shaker) and samples (25 μl) are taken at 0, 0.5, 1, 2, 4 and 6 hours. Samples are transferred into acetonitrile and pelleted by centrifugation (5 min). The supernatant is transferred to a new 96-deepwell plate, evaporated under nitrogen and resuspended. The decline of parent compound is analyzed by LC-MS/MS.
The intrinsic clearance CL_[…] is calculated as follows: CL_[…]=Dose/AUC=(C0/CD)/(AUD+clast/k)*1′000/60 (C0: initial concentration in the incubation [μM], CD: cell density of vital cells [10^6 cells/mL], AUD: area under the data [μM*h], clast: concentration of last data point [μM], k: slope of the regression line for parent decline [h^−1])
The calculated in vitro hepatic intrinsic clearance can be scaled up to the intrinsic in vivo hepatic clearance and used to predict hepatic in vivo blood clearance (CL) by the use of a is liver model (well stirred model): CL_[…]_INVIVO [ml/min/kg]=(CL_[…] [μL/min/10^6 cells]* hepatocellularity[10^6 cells/g liver]*liver factor[g/kg bodyweight])/1′000 CL[ml/min/kg]=CL_[…]_INVIVO [ml/min/kg]*hepatic blood flow [ml/min/kg]/(CL_[…]_INVIVO [ml/min/kg]+hepatic blood flow [ml/min/kg]) Qh[%]=CL[ml/min/kg]/hepatic blood flow[ml/min/kg]) (Hepatocellularity, human: 120*10^6 cells/g liver; lver factor, human: 25.7 g/kg bodyweight; blood flow, human: 21 ml/(min*kg))
The predicted human hepatic in vivo blood clearance (CL) of selected compounds in the metabolic stability assay described above are listed in Table 16.

[5] = Assay for the Determination of Metabolic Stability with Human Liver Microsomes; format: in vitro ADME; conditions: pooled human liver microsomes, 37° C., NADPH
Protocol: Assay for the Determination of Metabolic Stability with Human Liver Microsomes
The metabolic degradation of the test compound is assayed at 37° C. with pooled human liver microsomes. The final incubation volume of […] per time point contains TRIS buffer pH 7.6 (0.1 M), magnesium chloride (5 mM), microsomal protein (1 mg/ml) and the test compound at a final concentration of […]. Following a short preincubation period at 37° C., the reactions are initiated by addition of beta-nicotinamide adenine dinucleotide phosphate, reduced form (NADPH, 1 mM) and terminated by transfering an aliquot into acetonitrile after different time points. Additionally, the NADPH-independent degradation is monitored in incubations without NADPH, terminated at the last time point. The rol remaining test compound after NADPH independent incubation is reflected by the parameter c(control) (metabolic stability). The quenched incubations are pelleted by centrifugation (10′000 g, 5 min) An aliquot of the supernatant is assayed by LC-MS/MS for the amount of parent compound.
The half-life (t1/2 INVITRO) is determined by the slope of the semilogarithmic plot of the concentration-time profile. The intrinsic clearance (CL_[…]) is calculated by considering the amount of protein in the incubation: CL_[…][μl/min/mg protein]=(ln 2/(half-life [min]*protein content [mg/ml]))*1′000.
The half-life (t1/2 INVITRO) values of selected compounds in the metabolic stability assay described above are listed in Table 15.

Sequence of neutrophil elastase in human plasma (P08246 30-267): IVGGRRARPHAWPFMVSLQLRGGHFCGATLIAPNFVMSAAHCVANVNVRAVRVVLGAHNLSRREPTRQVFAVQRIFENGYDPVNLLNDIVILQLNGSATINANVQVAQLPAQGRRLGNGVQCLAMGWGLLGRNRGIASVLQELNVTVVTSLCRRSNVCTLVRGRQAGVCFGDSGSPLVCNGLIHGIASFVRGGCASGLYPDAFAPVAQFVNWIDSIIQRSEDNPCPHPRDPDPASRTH
Sequence of Human neutrophil elastase (P08246 30-267): as above

| Efflux ratio (Caco-2 cell monolayers; Caco-2, PEBA/PEAB) | PEAB (Caco-2 cell monolayers; Caco-2, apical-to-basal, pH 7.2, 37° C.) [×10⁻⁶ cm/s] | PEBA (Caco-2 cell monolayers; Caco-2, basal-to-apical, pH 7.2, 37° C.) [×10⁻⁶ cm/s] | IC50 [1] [nM] | Aqueous solubility [2] [µg/mL] | EC50 [3] [nM] | CL (predicted human hepatic in vivo blood clearance) [4] [mL/min/kg] | t1/2 INVITRO [5] [h] | Structure (SMILES) |
| --- | --- | --- | --- | --- | --- | --- | --- | --- |
| 5.4 | 15 | 81 | < 1 | 73 | 1 |  |  | CCNC(=O)N1C(=O)N(c2cccc(C(F)(F)F)c2)C2=C(C(=O)CCC2)C1c1ccc(C#N)cc1S(C)(=O)=O (stereo not shown) [Example 47.1] |
|  |  |  | < 1 | 66 | 1 | 0 | >2.17 | CS(=O)(=O)c1cc(C#N)ccc1[C@@H]1C2=C(CCCC2=O)N(c2cccc(C(F)(F)F)c2)C(=O)N1C(=O)NC1CCOCC1 [Example 75.16] |
|  |  |  | 1.2 | 56 | 3 | 3 | >2.17 | CS(=O)(=O)c1cc(C#N)ccc1C1C2=C(CCCC2=O)N(c2cccc(C(F)(F)F)c2)C(=O)N1CCCO (stereo not shown) [Example 58.2] |
